Series [1] concerns CD-1 mouse liver microsomes. The note with it: pH 7.4; for Peak Area, t0: 0 min. The protocol:
Microsomal stability (and thus susceptibility to metabolism) was tested using microsomes derived from CD-1 mouse liver. According to the applied protocol, both phases of metabolism were activated by the addition of cofactors NADPH and UDP-GlcUA. […] Stock solutions of all tested compounds (5 mM DMSO solutions) were diluted with 0.1 M potassium phosphate buffer pH 7.4 to obtain 0.1 mM solutions, which were further incubated according to the protocol. In order to activate both the 1st and 2nd phases of metabolism, NADPH and UDP-GlcUA were used as cofactors. Tested compounds were incubated at 37 °C for 30 min, and the incubation was quenched immediately after the addition of cofactors (t0) and after the defined incubation time (t) by mixing 100 µL of corresponding incubation mixtures with 200 µL of cold acetonitrile. All compounds were tested in duplicates, and their concentrations were determined using the HPLC-MS/MS method (Section 3.7.1).
The HPLC-MS/MS analysis was performed on the UHPLC chromatograph ACELLA (Thermo Fisher Scientific Inc., Madison, WI, USA), coupled to a triple quadrupole mass spectrometer TSQ Quantum Access MAX (Thermo Fisher Scientific Inc., Madison, WI, USA) with a heated electrospray ionization (HESI) interface. The column used was Zorbax Extend C18 (150 mm × 4.6 mm, 5 µm; Agilent Technologies), which was thermostated at 25 °C. The mobile phase consisted of acetonitrile and 0.1% formic acid (60:40, v/v), with a flow rate of 500 µL/min. The injection volume was 10 µL.

Another series deals with zebrafish embryos. Also on record: method as in PMID 38931946. The note with it: at therapeutic doses; cited from earlier work.
In series [2] the target is T1, human serum albumin (HSA) (Homo sapiens, UniProt P02768).
T1 construct: purchased Sigma-Aldrich
T1 sequence (P02768 25-609): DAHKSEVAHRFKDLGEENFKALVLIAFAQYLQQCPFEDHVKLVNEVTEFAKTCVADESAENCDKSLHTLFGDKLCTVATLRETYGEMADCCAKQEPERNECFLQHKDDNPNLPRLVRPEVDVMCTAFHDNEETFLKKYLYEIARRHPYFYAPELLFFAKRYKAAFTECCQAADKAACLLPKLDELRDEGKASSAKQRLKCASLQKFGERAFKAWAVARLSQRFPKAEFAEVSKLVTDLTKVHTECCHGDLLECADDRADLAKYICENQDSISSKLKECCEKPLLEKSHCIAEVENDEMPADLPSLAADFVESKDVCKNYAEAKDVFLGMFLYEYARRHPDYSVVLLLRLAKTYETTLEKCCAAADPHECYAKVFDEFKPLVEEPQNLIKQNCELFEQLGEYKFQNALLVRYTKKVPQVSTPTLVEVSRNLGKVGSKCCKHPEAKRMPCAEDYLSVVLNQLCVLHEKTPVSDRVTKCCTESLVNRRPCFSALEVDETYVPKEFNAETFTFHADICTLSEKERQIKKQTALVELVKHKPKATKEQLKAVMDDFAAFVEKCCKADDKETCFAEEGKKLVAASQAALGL
It counts as binding. The following applies: CHIRALPAK HSA column, ammonium acetate buffer pH 7.0/acetonitrile 85:15, 25 °C. The protocol:
Recently, interactions of many newly synthesized structurally diverse compounds with HSA were successfully studied using this technique. The degree of binding of the tested compounds to HSA was evaluated based on their retention behavior on the stationary phase modified with HSA. The logarithmic values of retention factors (logk) were used to evaluate indirectly and compare the drug–HSA interaction.
HPAC analysis was performed on an Agilent 1200 Series chromatograph (Agilent Technologies, Santa Clara, CA, USA). […] The mobile phase consisted of ammonium acetate buffer (pH 7.0; 0.01 M) and acetonitrile (85:15, v/v). The flow rate was 0.6 mL/min, the temperature was set to 25 °C, and the detection of tested compounds was carried out at 283 nm. Tested compounds were dissolved in DMSO (at a concentration of 1 mg/mL), further diluted with the mobile phase to a final concentration of 0.05 mg/mL, and analyzed in triplicate. The HPAC conditions were selected not only with the aim of achieving satisfactory retention characteristics of all synthesized compounds but also taking into account recommendations of a column manufacturer. Retention factors were calculated using Equation (1), where t0 (column dead time) was the retention time of DMSO at 220 nm.

The structures appear in SMILES notation.

Results on five compounds are retold here after article PMC11510591, “In Vitro Evaluation of Pharmacokinetic Properties of Selected Dual COX-2 and 5-LOX Inhibitors” (Pharmaceuticals, 2024).

For the compound `CC(=O)N(O)C(C)c1ccc(CC(C)C)cc1` (stereo not shown) [Compound 11], the “Peak Area, t0” value in series [1] was 60.0 ± 1.4 ×10^3. Moreover, the “Peak Area, t” value in series [1] (30 min) is on record as 44.6 ± 1.9 ×10^3.
For the compound `CC(NC(=O)NO)c1ccc(-c2ccccc2)c(F)c1` (stereo not shown) [Compound 2], the “Peak Area, t0” value in series [1] was 16.5 ± 3.1 ×10^3. In series [1] (30 min), the “Peak Area, t” value was 9.6 ± 3.0 ×10^3 and the “The Decrease in Peak Area (%)” value is on record as 41.65 (p = 0.0034) %.
As for `O=C(NO)NCc1ccccc1Nc1c(Cl)cccc1Cl` [Compound 3], in the series on zebrafish embryos, the “toxic effects on zebrafish embryos” value is “did not show toxic effects”. In addition, the “Peak Area, t0” value in series [1] is reported as 1033.6 ± 42.5 ×10^3. For the same compound, the “Peak Area, t” value in series [1] (30 min) is 455.5 ± 8.9 ×10^3.
Take `COc1ccc2cc(C(C)N(O)C(C)=O)ccc2c1` (stereo not shown) [Compound 12]: the “Peak Area, t0” value in series [1] is recorded as 43.9 ± 3.2 ×10^3. For the same compound, the “Peak Area, t” value in series [1] (30 min) is reported as 18.2 ± 0.1 ×10^3. In series [2], the “Retention Factors (logk)” value is 2.03 ± 0.02.
With `COc1ccc2c(c1)c(CNC(=O)NO)c(C)n2C(=O)c1ccc(Cl)cc1` [Compound 1], the “Peak Area, t0” value in series [1] is listed as 131.5 ± 16.8 ×10^3. In addition, the “Peak Area, t” value in series [1] (30 min) is on record as 60.5 ± 6.4 ×10^3.
